Source: patent US7129257B1, “Pyrazolo[3,4- e]benzoxazoles for the treatment of glaucoma” (Alcon, Inc., priority 2003, dated 2006)

Key:
[1] = target: T1, 5-HT2A receptor (Rattus norvegicus, UniProt P14842); assay: 5-HT2 Receptor Binding Assay ([125I]DOI competition); conditions: [125I]DOI binding, post mortem rat or human cerebral cortex homogenates
Description: The procedures described herein in Method 1 can be used to confirm a compound's 5-HT2 binding affinity.
5-HT2 Receptor Binding Assay
Aliquots of post mortem rat or human cerebral cortex homogenates (400 μL) dispersed in 50 mM TrisHCl buffer (pH 7.4) are incubated with [^125I]DOI (80 pM final) in the absence or presence of methiothepin (10 μM final) to define total and non-specific binding, respectively, in a total volume of 0.5 mL. The assay mixture is incubated for 1 hour at 23° C. in polypropylene tubes and the assays terminated by rapid vacuum filtration over Whatman GF/B glass fiber filters previously soaked in 0.3% polyethyleneimine using ice-cold buffer. Test compounds (at different concentrations) are substituted for methiothepin. Filter-bound radioactivity is determined by scintillation spectrometry on a beta counter. The data are analyzed using a non-linear, iterative curve-fitting computer program [Trends Pharmacol. Sci., 16, 413 (1995)] to determine the compound affinity parameter. The concentration of the compound needed to inhibit the [^125I]DOI binding by 50% of the maximum is termed the IC50 or Ki value.

[2] = target: T1, 5-HT2A receptor; assay: 5-HT2 Functional Assay: [Ca2+]i Mobilization (FLIPR); type: cell-based; design: endogenous in cells; host or cells: A7r5 rat vascular smooth muscle cells; conditions: for EC50: [Ca2+]i mobilization, rat vascular smooth muscle cells A7r5; for Emax: percentage of maximum 5-HT-induced response, A7r5 cells
Description: 5-HT2 Functional Assay: [Ca^2+]i; Mobilization
The receptor-mediated mobilization on intracellular calcium ([Ca^2+]i) was studied using the Fluorescence Imaging Plate Reader (FLIPR) instrument. Rat vascular smooth muscle cells, A7r5, were grown in a normal media of DMEM/10% FBS and 10 μg/mL gentamycin. Confluent cell monolayers were trypsinized, pelleted, and re-suspended in normal media. Cells were seeded in a 50 μL volume at a density of 20,000 cells/well in a black wall, 96-well tissue culture plate and grown for 2 days.
On the day of the experiment, one vial of FLIPR Calcium Assay Kit dye was re-suspended in 50 mL of a FLIPR buffer consisting of Hank's Balanced Salt Solution (HBSS), 20 mM HEPES, and 2.5 mM probenecid, pH 7.4. Cells were loaded with the calcium-sensitive dye by addition of an equal volume (50 μL) to each well of the 96-well plate and incubated with dye for 1 h at 23° C.
Typically, test compounds were stored at 25 μM in 50% DMSO/50% Ethanol solvent. Compounds were diluted 1:50 in 20% DMSO/20% Ethanol. For “hit” screening, compounds were further diluted 1:10 in FLIPR buffer and tested at a final concentration of 10 μM. For dose-response experiments, compounds were diluted 1:50 in FLIPR buffer and serially diluted 1:10 to give a 5- or 8-point dose-response curve.
The compound plate and cell plate were placed in the FLIPR instrument. At the beginning of an experimental run, a signal test was performed to check the basal fluorescence signal from the dye-loaded cells and the uniformity of the signal across the plate. The basal fluorescence was adjusted between 8000–12000 counts by modifying the exposure time, the camera F-stop, or the laser power. Instrument settings for a typical assay were the following: laser power 0.3–0.6 W, camera F-stop F/2, and exposure time 0.4 sec. An aliquot (25 μL) of the test compound was added to the existing 100 μL dye-loaded cells at a dispensing speed of 50 μL/sec. Fluorescence data were collected in real-time at 1.0 sec intervals for the first 60 secs and at 6.0 sec intervals for an additional 120 secs. Responses were measured as peak fluorescence intensity minus basal and where appropriate were expressed as a percentage of a maximum 5-HT-induced response. When the compounds were tested as antagonists against 10 μM 5-HT, they were incubated with the cells for 15 minutes prior to the addition of 5-HT.

T1 sequence (P14842 whole entry): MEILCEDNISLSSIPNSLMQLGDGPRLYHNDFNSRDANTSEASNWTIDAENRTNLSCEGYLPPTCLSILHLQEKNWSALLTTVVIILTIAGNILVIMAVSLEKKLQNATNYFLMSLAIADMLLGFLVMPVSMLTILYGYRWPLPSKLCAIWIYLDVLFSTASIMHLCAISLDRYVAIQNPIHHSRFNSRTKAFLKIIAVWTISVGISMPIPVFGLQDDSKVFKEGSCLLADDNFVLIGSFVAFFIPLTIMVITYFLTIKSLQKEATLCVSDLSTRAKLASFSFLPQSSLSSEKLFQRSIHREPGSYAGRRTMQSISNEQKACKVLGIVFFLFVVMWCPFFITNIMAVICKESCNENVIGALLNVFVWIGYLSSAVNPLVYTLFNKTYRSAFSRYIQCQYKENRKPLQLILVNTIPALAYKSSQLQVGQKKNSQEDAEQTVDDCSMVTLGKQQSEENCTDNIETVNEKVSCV

SMILES	IC50 [1] [nM]	EC50 [2] [nM]	Emax [2] [%]	melting point [°C]
COc1nc2c(ccc3cnn(C[C@H](C)N)c32)o1 [Example 1, (S)-2-(7-Methoxy-1H-pyrazolo[3,4-e]benzoxazol-1-yl)-1-methylethylamine]	8	352	72	
COCc1nc2c(ccc3cnn(C[C@H](C)N)c32)o1 [Example 2, (S)-2-[7-(Methoxymethyl)-1H-pyrazolo[3,4-e]benzoxazol-1-yl]-1-methylethylamine]	6	174	88	40 to 43
C[C@H](N)Cn1ncc2ccc3oc(C(N)=O)nc3c21 [Example 3, 1-[(S)-2-Aminopropyl]-1H-pyrazolo[3,4-e]benzoxazole-7-carboxylic acid amide]		445	72	60 to 65
CNC(=O)c1nc2c(ccc3cnn(C[C@H](C)N)c32)o1 [Example 4, 1-[(S)-2-Aminopropyl]-1H-pyrazolo[3,4-e]benzoxazole-7-carboxylic acid methylamide]	19	907	77	
